Data on two molecules can be found in patent US5223415A, “Biosynthetic production of 7-[1',2',6',7',8',8a'(R)-hexahydro-2'(S),6'(R)-dimethyl-8'(S)-hydroxy-1' (S)-naphthyl]-3(R),5(R)-dihydroxyheptanoic acid (triol acid)” (Merck & Co., Inc., priority 1992, dated 1993).

Structures can show the parent of a compound that is named as a salt.

Data set [1] concerns crude homogenate of Clonostachys compactiuscula. The format is biochemical. The following applies: equal volumes of crude homogenate (about 0.5 mg/ml protein) and lovastatin acid ammonium salt 5 g/L, 29° C., within 2 hrs. As to the method: Clonostachys compactiuscula ATCC 38009 was grown in 250 ml shake flasks containing 12 ml of medium EN at 29° C. for 3 days. Lovastatin ammonium salt was added to give a concentration of 2.5 g/L and fermentation was continued for 2 additional days. To prepare the crude homogenate, the culture was harvested by centrifugation at 3000 rpm for 10 minutes, after which it was washed with 50 mM of N-tris(hydroxymethyl)methyl-2-aminoethanesulfonic acid (TES) buffer, pH 7.7. The culture medium was again centrifuged and the cell mass was chilled on ice and then subjected to grinding in a mortar and pestle containing glass fragments and powdered dry ice. The contents of 1 shake flask was resuspended in 2.0 ml of 50 mM TES buffer and centrifuged at 6000 rpm for 10 minutes to remove cell debris and glass fragments. The supernatant was used as the source of crude homogenate with protein concentration of approximately 0.5 mg/ml.
In order to carry out the biotransformation, one volume of crude homogenate was combined with an equal volume of lovastatin acid ammonium salt (5 g/L), and the mixture was incubated at 29° C. Using this method, 80-90% conversion of lovastatin acid to triol acid was observed within 2 hrs.

In data set [2] the test system is purified Clonostachys compactiuscula esterase. The format is biochemical. The following applies: within 16 h; enzyme 4.0 or 40.0 microgram/ml, simvastatin 10 or 35 mM, pH 7.8 or 9.5, methanol 0-20% v/v (conditions listed in table 1). On the procedure: Clonostachys compactiuscula esterase was purified from 57 g mycelial cells which had been grown up in medium EN using the methods detailed in Examples 1 and 3. The use of a Pharmacia HR 10/10 MONO Q® column allowed the application of 85 mL of crude cell-free extract per purification run. In total 0.89 mg of purified esterase was obtained (in a volume of 10 mL) which was then concentrated to 0.175 mg protein/mL by ultrafiltration using a 10,000 molecular weight cut-off CENTRIPREP® device (AMICON®).
Other conditions which were varied were pH (7.8 and 9.5 were assessed) and methanol concentration (0, 10 and 20% [v/v, final concentration]). The reactions were buffered by the inclusion of either 100 mM TRIS (in the case of reactions carried out at pH 7.8) or 100 mM glycine […]. Greater than 90% hydrolysis of residual lovastatin acid to triol acid was obtained within 16 h under the following conditions: […]

Data set [3] has as its system purified lovastatin acid hydrolase from Clonostachys compactiuscula. Put plainly: Km and specific activity of purified hydrolase with lovastatin ammonium salt as substrate. The format is biochemical. The following applies: for specific activity: saturating substrate conditions. As to the method:
A hydrolytic enzyme which carries out the biotransformation of lovastatin acid to triol acid was purified by Fast Protein Liquid Chromatography (FPLC*) employing a MONO Q® anion exchange column to near homogeneity from homogenates of Clonostachys compactiuscula employing the procedures described below.
The supernatant from the 6,000 rpm centrifugation as in Example 2 above, but where 50 mM of tris(hydroxymethyl)aminomethane (TRIS) buffer (pH 7.8) is substituted for 50 mM TES buffer, was centrifuged at 15,000 rpm for 20 minutes and the resulting supernatant filtered through a […] filter. Batches (10 mL) of filtrate containing 0.3-0.5 mg/mL protein were then applied at a rate of 1.0-2.0 mL/minute to a Pharmacia MONO Q® (HR 5/5) anion exchange column connected to a Pharmacia Fast Protein Liquid Chromatography (FPLC) system.
After allowing binding of the anionic proteins to the column matrix, the hydrolase was specifically eluted by the application of a linear gradient of sodium chloride (0-500 mM) in 20 mM TRIS, pH 7.8. […] When the latter substrate was used, the hydrolytic reaction was monitored spectrophotometrically at 410 nm essentially as described by Lawrence, R. C. et al. in J. Gen. Microbiol. (1967) 48, 401-418.
Using the purified enzyme preparation, the biotransformation was carried out in accordance with the procedures described above in Examples 1, 2, 4 and 6, and an estimate was made of the hydrolase's Km and specific activity with lovastatin ammonium salt as substrate. […]
After allowing binding of the anionic proteins to the column matrix, the hydrolase was specifically eluted by the application of a linear gradient of sodium chloride (0-500 mM). […] When the latter substrate was used, the hydrolytic reaction was monitored spectrophotometrically at 410 nm essentially as described by Lawrence, R. C. et al. in J. Gen. […]

Data set [4] has as its system crude hydrolase (6000 rpm supernatant) of Clonostachys compactiuscula ATCC 38009. The conditions noted are these: lovastatin 1.4 mM and simvastatin 18.6 mM ammonium salts solution, 50 mM Tris pH 7.8, methanol, 29 C., after 17 h.
Method: The resulting homogenized, frozen powder was transferred to a suitable tube and the material remaining in the mortar washed into the same tube using a minimal volume of 50 mM Tris, pH 7.8. The mixture was then allowed to thaw and then centrifuged at 6000 rpm for 10 minutes to remove large cell debris and glass.
The 6000 rpm supernatant was used as a crude source of hydrolase and 0.8 mL was mixed with 0.2 mL methanol and 1.0 mL of a solution of simvastatin (18.6 mM and lovastatin (1.4 mM) ammonium salts in 50 MM Tris, pH 7.8.) The reaction mixture was incubated at 29 C. and sampled after 1 h, 2 h, and 17 h by removing 0.1 mL and diluting with 0.9 mL methanol. The samples were then subjected to analysis by HPLC using a Whatman C-8 column as stationary phase and a 60:40 mixture of acetonitrile: 0.5% phosphoric acid as mobile phase; under these conditions the respective retention times for simvastatin, lovastatin and triol ammonium salts are 4.4 min., 3.8 min., and 2.5 min.

A word on the Km: it is the substrate concentration at which the rate is half of its maximum.

On to `CC[C@H](C)C(=O)O[C@H]1C[C@@H](C)C=C2C=C[C@H](C)[C@H](CC[C@@H](O)C[C@@H](O)CC(=O)O)[C@H]21` [lovastatin acid], for which the “conversion of lovastatin acid to triol acid” value in data set [1] is on record as 80-90%. Besides, the “hydrolysis of residual lovastatin acid to triol acid” value in data set [2] is reported as “Greater than 90%”.

For `CC[C@H](C)C(=O)O[C@H]1C[C@@H](C)C=C2C=C[C@H](C)[C@H](CC[C@@H](O)C[C@@H](O)CC(=O)O)[C@H]21` [lovastatin ammonium salt], the Km in data set [3] (lovastatin ammonium salt as substrate, purified enzyme preparation) came to 4.14 mM. Also, the results for the specific activity in data set [3] (Example 3) and in data set [3] (Example 4) were 0.04 mmol lovastatin ammonium salt hydrolyzed/mg protein per minute and 0.11 mmol lovastatin ammonium salt/mg protein per hour, respectively. Moreover, the “conversion of lovastatin (HPLC area percent reduction)” value in data set [4] is reported as “greater than 99%”.
